In PMC7889231 (Journal of Enzyme Inhibition and Medicinal Chemistry, 2021):
Where two headings read alike, the source gives them in different places.

How the values were obtained:
HepG-2 = assay: MTT anti-proliferative assay, HepG-2; format: cell-based, human
HCT-116 = assay: MTT anti-proliferative assay, HCT-116; format: cell-based, human
MCF-7 = assay: MTT anti-proliferative assay, MCF-7; format: cell-based, human; conditions: Homo sapiens
[1] = test system: HepG-2, HCT-116, and MCF-7; assay: MTT anti-proliferative assay, ranges stated over several cell lines; format: cell-based; conditions: Homo sapiens
tubulin = assay: In vitro tubulin polymerisation inhibition (turbidimetric, fluorescent plate reader); format: biochemical; conditions: mean of three experiments
Description: The inhibition assay on microtubule polymerisation was evaluated turbidimetrically using a fluorescent plate reader.
The effect of the synthesised compounds on tubulin polymerisation was assessed turbidimetrically using a fluorescent plate reader method. The complete procedure was depected in Supplementary data.

[2] = Homo sapiens, HepG2, MTT, mean ± SD of three experiments, read-out: IC50 HepG-2
[3] = Homo sapiens, HCT-116, MTT, mean ± SD of three experiments, read-out: IC50 HCT-116
[4] = MCF7, MTT, mean ± SD of three experiments, read-out: IC50 MCF-7
[5] = range over HepG-2, HCT-116 and MCF-7 and over the listed compounds, read-out: IC50 values ranging (all tested cell lines)
[6] = MTT, mean ± SD of three experiments, read-out: IC50 HepG-2
[7] = MTT, mean ± SD of three experiments, read-out: IC50 HCT-116
[8] = range over HCT-116 and MCF-7 and over the listed compounds, read-out: IC50 values ranging (HCT-116 and MCF-7)

Row | SMILES | IC50 (HepG-2; [2]) [µM] | IC50 (HCT-116; [3]) [µM] | IC50 (MCF-7; [4]) [µM] | IC50 [1, 5] [µM] | melting point [°C] | IC50 (HepG-2; [6]) [µM] | IC50 (HCT-116; [7]) [µM] | IC50 (HepG-2; Homo sapiens, HepG2, read-out: IC50 HepG-2) [µM] | IC50 (HCT-116; Homo sapiens, HCT-116, read-out: IC50 HCT-116) [µM] | IC50 (MCF-7; MCF7, read-out: IC50 MCF-7) [µM] | IC50 ([1]; read-out: IC50 values ranging (all tested cell lines)) [µM] | IC50 (tubulin) [µM] | IC50 [1, 8] [µM]
1 | COc1ccc2nc(Cl)c(/C=C/C(=O)c3ccc(N)cc3)cc2c1 [Compound 6, (E)-1–(4-Aminophenyl)-3–(2-chloro-6-methoxyquinolin-3-yl)prop-2-en-1-one] | 32.9 ± 2.1 | 28.6 ± 1.7 | 37.3 ± 2.1 | 22.4 to 45.5 | 120 to 121 |  |  |  |  |  |  |  | 
2 | COc1ccc2nc(Cl)c(C3CC(c4ccc(N)cc4)=NN3C(N)=S)cc2c1 (centres unmarked) [Compound 15, 3–(4-Aminophenyl)-5–(2-chloro-6-methoxyquinolin-3-yl)-4,5-dihydro-1H-pyrazole-1-carbothioamide] | 10.2 ± 0.4 | 11.6 ± 0.9 | 13.6 ± 0.7 | 10.2 to 17.6 | 123 to 124 |  |  |  |  |  |  |  | 
3 | COc1ccc2nc(Cl)c(C3CC(c4ccc(N)cc4)=NN3)cc2c1 (centres unmarked) [Compound 9, 4-[5–(2-Chloro-6-methoxyquinolin-3-yl)-4,5-dihydro-1H-pyrazol-3-yl]aniline] | 17.4 | 16.6 | 20.5 ± 1.1 |  | 122 to 123 | 16.6 ± 0.8 | 17.4 ± 1 |  |  |  |  |  | 
4 | COc1ccc2nc(Cl)c(/C=C/C(=O)c3ccc(Cl)cc3)cc2c1 [Compound 5, (E)-3–(2-Chloro-6-methoxyquinolin-3-yl)-1–(4-chlorophenyl)prop-2-en-1-one] | 29.2 ± 1.9 | 28.9 ± 1.7 | 32.2 ± 2 | 22.4 to 45.5 | 135 to 136 |  |  |  |  |  |  |  | 
5 | COc1ccc2nc(Cl)c(/C=C/C(=O)c3cc(OC)c(OC)c(OC)c3)cc2c1 [Compound 7, (E)-3–(2-Chloro-6-methoxyquinolin-3-yl)-1–(3,4,5-trimethoxyphenyl)prop-2-en-1-one] | 23.6 ± 1.3 | 25.1 ± 1.2 | 16.9 ± 1.2 |  | 127 to 128 |  |  |  |  |  |  |  | 
6 | COc1ccc2nc(Cl)c(-c3cc(-c4ccc(N)cc4)nc(=S)[nH]3)cc2c1 [Compound 27, 4–(4-Aminophenyl)-6–(2-chloro-6-methoxyquinolin-3-yl)pyrimidine-2(1H)-thione] | 16.3 ± 0.4 | 22.4 ± 0.5 | 24.3 ± 0.9 |  | 146 to 147 |  |  |  |  |  |  |  | 
7 | COc1ccc2nc(Cl)c(C3CC(c4ccc(Cl)cc4)=NN3c3ccc([N+](=O)[O-])cc3[N+](=O)[O-])cc2c1 (centres unmarked) [Compound 23, 2-Chloro-3-[3–(4-chlorophenyl)-1–(2,4-dinitrophenyl)-4,5-dihydro-1H-pyrazol-5-yl]-6-methoxyquinoline] |  |  |  |  | 143 to 144 |  |  | 2.64 ± 0.1 | 1.78 ± 0.1 | 4.48 ± 0.1 | 1.78 to 9.19 |  | 
8 | COc1ccc2nc(Cl)c(-c3cc(-c4cc(OC)c(OC)c(OC)c4)nc(N)n3)cc2c1 [Compound 31, 4–(2-Chloro-6-methoxyquinolin-3-yl)-6–(3,4,5-trimethoxyphenyl)pyrimidin-2-amine] | 9.45 ± 0.5 | 10.5 ± 0.4 | 15.2 ± 0.7 |  | 162 to 163 |  |  |  |  |  |  |  | 
9 | COc1ccc2nc(Cl)c(C3CC(c4ccc(N)cc4)=NN3C(N)=O)cc2c1 (centres unmarked) [Compound 18, 3–(4-Aminophenyl)-5–(2-chloro-6-methoxyquinolin-3-yl)-4,5-dihydro-1H-pyrazole-1-carboxamide] | 10.2 ± 0.4 | 10.4 ± 0.3 | 13.7 ± 0.8 | 10.2 to 17.6 | 130 to 131 |  |  |  |  |  |  |  | 
10 | COc1ccc2nc(Cl)c(-c3cc(-c4cc(OC)c(OC)c(OC)c4)nc(=O)[nH]3)cc2c1 [Compound 34, 6–(2-Chloro-6-methoxyquinolin-3-yl)-4–(3,4,5-trimethoxyphenyl)pyrimidin-2(1H)-one] | 15.3 ± 0.4 | 11.9 ± 0.4 | 15.4 ± 0.8 | 10.2 to 17.6 | 176 to 177 |  |  |  |  |  |  |  | 
11 | COc1ccc2nc(Cl)c(-c3cc(-c4ccc(N)cc4)nc(=O)[nH]3)cc2c1 [Compound 33, 4–(4-Aminophenyl)-6–(2-chloro-6-methoxyquinolin-3-yl)pyrimidin-2(1H)-one] | 9.37 ± 0.4 | 8.5 ± 0.2 | 10.3 ± 0.5 |  | 171 to 172 |  |  |  |  |  |  | 0.0472 | 6.48 to 10.3
12 | COc1ccc2nc(Cl)c(-c3cc(-c4ccc(Cl)cc4)nc(N)n3)cc2c1 [Compound 29, 4–(2-Chloro-6-methoxyquinolin-3-yl)-6–(4-chlorophenyl)pyrimidin-2-amine] | 16.5 ± 0.8 | 13 ± 0.6 | 17.6 ± 0.8 | 10.2 to 17.6 | 195 to 196 |  |  |  |  |  |  |  | 
13 | COc1ccc2nc(Cl)c(C3CC(c4ccc(N)cc4)=NN3c3ccccc3)cc2c1 (centres unmarked) [Compound 21, 4-[5–(2-Chloro-6-methoxyquinolin-3-yl)-1-phenyl-4,5-dihydro-1H-pyrazol-3-yl]aniline] | 7.32 ± 0.2 | 8.91 ± 0.3 | 9.19 ± 0.3 | 1.78 to 9.19 | 136 to 137 |  |  |  |  |  |  | 0.00911 | 
14 | COc1ccc2nc(Cl)c(C3CC(c4ccc(Cl)cc4)=NN3C(N)=O)cc2c1 (centres unmarked) [Compound 17, 5–(2-Chloro-6-methoxyquinolin-3-yl)-3–(4-chlorophenyl)-4,5-dihydro-1H-pyrazole-1-carboxamide] | 12.7 ± 0.5 | 11.4 ± 0.4 | 15.9 ± 0.6 | 10.2 to 17.6 | 135 to 136 |  |  |  |  |  |  |  | 
15 | COc1ccc2nc(Cl)c(C3CC(c4ccc(Cl)cc4)=NN3)cc2c1 (centres unmarked) [Compound 8, 2-Chloro-3-[3–(4-chlorophenyl)-4,5-dihydro-1H-pyrazol-5-yl]-6-methoxyquinoline] | 30.9 ± 1.2 | 22.4 ± 1.1 | 33.5 ± 2.4 | 22.4 to 45.5 | 118 to 119 |  |  |  |  |  |  |  | 
17 | COc1ccc2nc(Cl)c(-c3cc(-c4ccc(N)cc4)nc(N)n3)cc2c1 [Compound 30, 4–(4-Aminophenyl)-6–(2-chloro-6-methoxyquinolin-3-yl)pyrimidin-2-amine] | 28.5 ± 1.3 | 32.7 ± 0.9 | 33.8 ± 1.5 | 22.4 to 45.5 | 175 to 176 |  |  |  |  |  |  |  | 
18 | COc1ccc2nc(Cl)c(C3CC(c4cc(OC)c(OC)c(OC)c4)=NN3c3ccccc3)cc2c1 (centres unmarked) [Compound 22, 2-Chloro-6-methoxy-3-[1-phenyl-3–(3,4,5-trimethoxyphenyl)-4,5-dihydro-1H-pyrazol-5-yl]quinoline] | 4.76 ± 0.2 | 3.04 ± 0.3 | 6.45 ± 0.2 | 1.78 to 9.19 | 136 to 137 |  |  |  |  |  |  | 0.0191 | 
19 | COc1ccc2nc(Cl)c(-c3cc(-c4ccc(Cl)cc4)nc(=S)[nH]3)cc2c1 [Compound 26, 6–(2-Chloro-6-methoxyquinolin-3-yl)-4–(4-chlorophenyl)pyrimidine-2(1H)-thione] | 3.62 ± 0.1 | 2.24 ± 0.2 | 5.55 ± 0.2 | 1.78 to 9.19 | 155 to 156 |  |  |  |  |  |  | 0.0345 | 
20 | COc1ccc2nc(Cl)c(C3CC(c4ccc(Cl)cc4)=NO3)cc2c1 (centres unmarked) [Compound 11, 5–(2-Chloro-6-methoxyquinolin-3-yl)-3–(4-chlorophenyl)-4,5-dihydroisoxazole] | 20.5 ± 1 | 19.7 ± 1.3 | 22.8 ± 1.4 |  | 145 to 146 |  |  |  |  |  |  |  | 
21 | COc1ccc2nc(Cl)c(C3CC(c4cc(OC)c(OC)c(OC)c4)=NN3C(N)=O)cc2c1 (centres unmarked) [Compound 19, 5–(2-Chloro-6-methoxyquinolin-3-yl)-3–(3,4,5-trimethoxyphenyl)-4,5-dihydro-1H-pyrazole-1-carboxamide] | 10.9 ± 0.5 | 7.38 ± 0.4 | 9.04 ± 0.5 |  | 117 to 118 |  |  |  |  |  |  |  | 6.48 to 10.3
22 | COc1ccc2nc(Cl)c(C3CC(c4cc(OC)c(OC)c(OC)c4)=NN3C(N)=S)cc2c1 (centres unmarked) [Compound 16, 5–(2-Chloro-6-methoxyquinolin-3-yl)-3–(3,4,5-trimethoxyphenyl)-4,5-dihydro-1H-pyrazole-1-carbothioamide] | 8.87 | 9.3 | 13.9 ± 0.3 |  | 121 to 122 | 9.3 ± 0.3 | 8.87 ± 0.3 |  |  |  |  |  | 
23 | COc1ccc2nc(Cl)c(C3CC(c4cc(OC)c(OC)c(OC)c4)=NN3)cc2c1 (centres unmarked) [Compound 10, 2-Chloro-6-methoxy-3-[3–(3,4,5-trimethoxyphenyl)-4,5-dihydro-1H-pyrazol-5-yl]quinoline] | 17.4 | 15.4 | 25.1 ± 1.2 |  | 114 to 115 | 15.4 ± 0.9 | 17.4 ± 1.1 |  |  |  |  |  | 
24 | COc1ccc2nc(Cl)c(C3CC(c4ccc(N)cc4)=NO3)cc2c1 (centres unmarked) [Compound 12, 4-[5–(2-Chloro-6-methoxyquinolin-3-yl)-4,5-dihydroisoxazol-3-yl]aniline] | 35.4 ± 1.8 | 40.5 ± 2.4 | 45.5 ± 2.8 | 22.4 to 45.5 | 127 to 128 |  |  |  |  |  |  |  | 
25 | COc1ccc2nc(Cl)c(C3CC(c4cc(OC)c(OC)c(OC)c4)=NO3)cc2c1 (centres unmarked) [Compound 13, 5–(2-Chloro-6-methoxyquinolin-3-yl)-3–(3,4,5-trimethoxyphenyl)-4,5-dihydroisoxazole] | 9.96 | 12.9 | 17 ± 1.2 |  | 133 to 134 | 12.9 ± 0.6 | 9.96 ± 0.3 |  |  |  |  |  | 
